According to US20210361565A1, “Oral Pharmaceutical Composition of an NK-1 Antagonist” (Intervet Inc., priority 2017, published 2021):

Columns and labels:
[1] = test system: centrally acting emetogens (apomorphine IV) and peripherally acting emetogens (syrup of ipecac orally); settings: dogs; cited from earlier work
[2] = test system: chemotherapy induced nausea and vomiting; settings: humans; cited from earlier work
[3] = test system: apomorphine-induced emesis; experiment: Apomorphine-induced emesis model; type: in vivo, dog; settings: single oral dose 5 mg/kg; FIGS. 5A-5B
Description: Apomorphine-induced emesis model is a well-established canine model to investigate antiemetic actions of new compounds and has been used in studies investigating new NK1 antagonists (Furukawa et al. Biol Pharm Bull 36:974-979, 2013) as well as Cerenia and other antiemetic drugs used in dogs (Sedlacek et al. J Vet Pharmacol Therap 31:533-537, 2008).
The canine model of apomorphine-induced emesis is a well-established model to investigate antiemetic actions of new compounds and has been used in studies investigating new NK1 antagonists (Furukawa et al. Biol Pharm Bull 36:974-979, 2013) as well as Cerenia and other antiemetic drugs used in dogs (Sedlacek et al. J Vet Pharmacol Therap 31:533-537, 2008). This model was used to evaluate the antiemetic activity of telmapitant in non-aqueous solution formulations and solid formulations (FIGS. 4A and 4B). The onset of action (FIGS. 4A and 4B) as well as the duration of activity (FIGS. 5A and 5B) were investigated after a single oral administration. Intravenous (IV) administration of apomorphine (emetogenic challenge 0.03 mg/kg) was delivered to all individuals 2 h, 4 h, 6 h, 8 h, 24 h, and 120 h (FIGS. 4A and 4B) or 1 d, 3 d, 5 d, 6 d, and 7 d (FIGS. 5A and 5B). […] Any emetic events (vomiting episodes and/or retches) following each emetogenic challenge were recorded for 20 min. […]

## COc1ccc(C(C)(C)C)cc1CN[C@H]1C2CCN(CC2)[C@H]1C(c1ccccc1)c1ccccc1 [maropitant]
[1]
  antiemetic effectiveness against emetogens: effective

## C[C@@H](OC[C@@]1(c2ccccc2)CC[C@]2(CCC(=O)N2)CN1)c1cc(C(F)(F)F)cc(C(F)(F)F)c1 [rolapitant]
[2]
  efficacy and safety for prevention of chemotherapy induced nausea and vomiting: efficacious and safe

## C[C@@H](OC[C@@]1(c2ccccc2)CC[C@]2(CN1)NC(=O)NC2=O)c1cc(C(F)(F)F)cc(C(F)(F)F)c1 [telmapitant, (5R,8S)-8-[[(1R)-1-[3,5-bis(trifluoromethyl)phenyl]ethoxy]methyl]-8-phenyl-1,3,9-triazaspiro[4.5]decane-2,4-dione]
[3]
  antiemetic data at 5 mg/kg versus 7 mg/kg: not significantly different
